ChEMBL document CHEMBL4823291, “Discovery of 5,6,7,8-tetrahydropyrido[3,4-d]pyrimidine derivatives as novel selective Axl inhibitors” (Bioorg Med Chem Lett, 2021)

Experiments:
[1] = biological target: T1, Tyrosine-protein kinase Mer (Mus musculus, UniProt Q60805); assay: Inhibition of Mer in mouse BaF3 cells; type: cell-based
T1 sequence (Q60805 whole entry): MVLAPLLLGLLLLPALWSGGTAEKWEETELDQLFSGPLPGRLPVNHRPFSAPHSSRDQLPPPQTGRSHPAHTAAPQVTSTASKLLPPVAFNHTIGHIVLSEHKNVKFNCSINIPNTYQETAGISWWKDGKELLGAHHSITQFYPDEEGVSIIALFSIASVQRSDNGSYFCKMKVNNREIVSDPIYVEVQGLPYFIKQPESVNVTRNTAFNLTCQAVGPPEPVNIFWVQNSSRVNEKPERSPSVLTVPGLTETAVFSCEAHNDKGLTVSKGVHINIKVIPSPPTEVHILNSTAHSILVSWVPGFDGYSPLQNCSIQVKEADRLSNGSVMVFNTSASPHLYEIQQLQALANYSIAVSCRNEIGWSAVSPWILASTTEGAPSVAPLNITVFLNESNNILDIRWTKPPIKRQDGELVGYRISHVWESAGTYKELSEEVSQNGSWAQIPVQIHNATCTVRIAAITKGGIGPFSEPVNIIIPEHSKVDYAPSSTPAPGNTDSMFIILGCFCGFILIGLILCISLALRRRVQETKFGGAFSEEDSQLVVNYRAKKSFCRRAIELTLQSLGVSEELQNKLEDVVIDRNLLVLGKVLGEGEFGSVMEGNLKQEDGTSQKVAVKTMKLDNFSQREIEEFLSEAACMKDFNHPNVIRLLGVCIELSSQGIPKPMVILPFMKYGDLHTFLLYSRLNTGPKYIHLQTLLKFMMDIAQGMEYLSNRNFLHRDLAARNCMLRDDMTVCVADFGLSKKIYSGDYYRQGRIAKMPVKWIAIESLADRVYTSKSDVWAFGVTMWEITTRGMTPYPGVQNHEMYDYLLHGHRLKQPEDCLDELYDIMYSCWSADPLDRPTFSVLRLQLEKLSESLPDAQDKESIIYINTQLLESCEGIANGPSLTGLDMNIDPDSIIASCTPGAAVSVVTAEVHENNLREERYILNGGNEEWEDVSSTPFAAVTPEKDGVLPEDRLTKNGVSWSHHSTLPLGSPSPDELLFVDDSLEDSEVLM

[2] = biological target: T2, Tyrosine-protein kinase Mer (Homo sapiens, UniProt Q12866); assay: Inhibition of Mer (unknown origin) by cell free assay
T2 sequence (Q12866 whole entry): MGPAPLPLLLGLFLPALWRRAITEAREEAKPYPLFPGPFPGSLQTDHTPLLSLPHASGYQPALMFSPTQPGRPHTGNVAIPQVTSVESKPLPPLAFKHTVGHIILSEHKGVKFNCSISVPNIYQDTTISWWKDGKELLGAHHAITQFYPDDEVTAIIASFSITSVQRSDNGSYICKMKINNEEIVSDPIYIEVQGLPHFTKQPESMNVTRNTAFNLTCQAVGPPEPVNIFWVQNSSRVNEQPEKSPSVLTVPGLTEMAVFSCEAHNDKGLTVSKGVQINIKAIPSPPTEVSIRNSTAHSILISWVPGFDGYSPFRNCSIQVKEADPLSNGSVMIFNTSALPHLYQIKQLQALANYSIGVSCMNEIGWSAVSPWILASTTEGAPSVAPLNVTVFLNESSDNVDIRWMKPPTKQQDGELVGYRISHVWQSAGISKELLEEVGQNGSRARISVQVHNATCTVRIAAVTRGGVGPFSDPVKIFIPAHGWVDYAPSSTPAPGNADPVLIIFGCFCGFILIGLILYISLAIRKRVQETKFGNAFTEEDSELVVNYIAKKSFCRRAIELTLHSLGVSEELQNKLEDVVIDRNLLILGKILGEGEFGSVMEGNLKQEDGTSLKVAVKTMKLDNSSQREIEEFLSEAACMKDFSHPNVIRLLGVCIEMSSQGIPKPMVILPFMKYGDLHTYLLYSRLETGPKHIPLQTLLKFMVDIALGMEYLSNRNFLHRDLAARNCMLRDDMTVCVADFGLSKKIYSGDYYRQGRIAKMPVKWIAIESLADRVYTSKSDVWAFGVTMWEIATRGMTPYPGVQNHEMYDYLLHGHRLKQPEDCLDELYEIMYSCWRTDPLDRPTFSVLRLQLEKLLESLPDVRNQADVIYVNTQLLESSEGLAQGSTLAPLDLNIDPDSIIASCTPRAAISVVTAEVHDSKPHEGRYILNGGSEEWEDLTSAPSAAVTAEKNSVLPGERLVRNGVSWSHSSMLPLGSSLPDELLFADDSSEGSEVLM

[3] = biological target: T3, Tyrosine-protein kinase receptor UFO (Homo sapiens, UniProt P30530); assay: Inhibition of Axl (unknown origin) by cell free assay
T3 sequence (P30530 whole entry): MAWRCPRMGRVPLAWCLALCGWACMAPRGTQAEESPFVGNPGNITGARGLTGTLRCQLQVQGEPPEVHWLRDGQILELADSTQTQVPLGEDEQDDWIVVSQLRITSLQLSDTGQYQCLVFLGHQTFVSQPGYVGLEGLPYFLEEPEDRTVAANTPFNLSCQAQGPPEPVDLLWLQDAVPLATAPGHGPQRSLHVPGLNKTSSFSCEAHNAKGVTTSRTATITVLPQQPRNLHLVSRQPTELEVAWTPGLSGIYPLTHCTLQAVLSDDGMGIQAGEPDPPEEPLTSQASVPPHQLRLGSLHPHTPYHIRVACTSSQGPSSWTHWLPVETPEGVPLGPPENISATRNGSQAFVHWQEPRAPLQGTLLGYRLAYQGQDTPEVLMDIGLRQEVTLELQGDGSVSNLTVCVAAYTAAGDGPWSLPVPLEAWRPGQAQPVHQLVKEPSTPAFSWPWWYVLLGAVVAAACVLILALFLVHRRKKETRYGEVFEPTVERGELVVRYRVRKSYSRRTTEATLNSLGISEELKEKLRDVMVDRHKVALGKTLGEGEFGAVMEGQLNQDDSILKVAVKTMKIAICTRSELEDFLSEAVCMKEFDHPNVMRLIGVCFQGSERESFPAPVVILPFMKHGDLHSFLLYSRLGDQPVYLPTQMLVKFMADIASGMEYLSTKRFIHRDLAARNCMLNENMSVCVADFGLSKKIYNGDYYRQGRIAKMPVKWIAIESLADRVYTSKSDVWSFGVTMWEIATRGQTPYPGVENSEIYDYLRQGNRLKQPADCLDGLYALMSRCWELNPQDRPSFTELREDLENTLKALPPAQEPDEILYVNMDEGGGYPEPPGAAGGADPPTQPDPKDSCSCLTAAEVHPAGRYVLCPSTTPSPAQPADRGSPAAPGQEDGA

[4] = biological target: T4, Tyrosine-protein kinase receptor UFO (Mus musculus, UniProt Q00993); assay: Inhibition of Axl in mouse BaF3 cells; type: cell-based
T4 sequence (Q00993 whole entry): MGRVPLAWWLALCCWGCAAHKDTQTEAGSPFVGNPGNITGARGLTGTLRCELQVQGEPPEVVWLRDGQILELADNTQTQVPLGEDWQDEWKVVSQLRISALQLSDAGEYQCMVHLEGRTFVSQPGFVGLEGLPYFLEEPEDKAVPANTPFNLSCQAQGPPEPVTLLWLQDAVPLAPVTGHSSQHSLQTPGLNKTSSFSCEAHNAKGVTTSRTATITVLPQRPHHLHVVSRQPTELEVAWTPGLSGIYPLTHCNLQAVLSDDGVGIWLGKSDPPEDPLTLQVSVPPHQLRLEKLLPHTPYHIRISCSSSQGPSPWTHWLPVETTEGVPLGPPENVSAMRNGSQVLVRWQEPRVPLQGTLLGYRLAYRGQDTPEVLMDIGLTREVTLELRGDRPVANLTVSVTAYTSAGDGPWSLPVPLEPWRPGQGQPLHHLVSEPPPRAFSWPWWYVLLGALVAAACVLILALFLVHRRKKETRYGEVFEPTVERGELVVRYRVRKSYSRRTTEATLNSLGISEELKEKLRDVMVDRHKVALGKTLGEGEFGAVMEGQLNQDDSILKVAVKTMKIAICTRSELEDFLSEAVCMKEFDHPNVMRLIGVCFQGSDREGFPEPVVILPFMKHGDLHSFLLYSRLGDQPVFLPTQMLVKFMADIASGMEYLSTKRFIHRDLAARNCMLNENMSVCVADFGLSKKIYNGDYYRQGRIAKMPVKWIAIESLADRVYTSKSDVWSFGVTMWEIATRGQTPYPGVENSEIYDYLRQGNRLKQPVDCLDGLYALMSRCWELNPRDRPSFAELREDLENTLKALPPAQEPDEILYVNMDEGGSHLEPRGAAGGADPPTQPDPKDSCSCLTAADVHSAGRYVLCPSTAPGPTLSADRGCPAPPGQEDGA

[5] = tested on: BaF3; assay: Ratio of IC50 for Mer in mouse BaF3 cells to IC50 for Axl in mouse BaF3 cells; type: cell-based
[6] = species: Homo sapiens; assay: Ratio of IC50 for Mer (unknown origin) to IC50 for Axl (unknown origin)

Compound	IC50 [1] [nM]	IC50 [2] [nM]	IC50 [3] [nM]	IC50 [4] [nM]	Ratio IC50 [6]	Ratio IC50 [5]
CC(C)n1cc(C(=O)Nc2ccc(Oc3ncnc4c3CN(C(=O)CN3CCOCC3)C4)c(F)c2)c(=O)n(-c2ccc(F)cc2)c1=O	730	230	16	270	14	2.7
CC(C)n1cc(C(=O)Nc2ccc(Oc3ncnc4c3CCN(C)C4)c(F)c2)c(=O)n(-c2ccc(F)cc2)c1=O	570	530	6.6	110	80	
CC(C)n1cc(C(=O)Nc2ccc(Oc3ncnc4c3CCN(C(=O)C3CCC3)C4)c(F)c2)c(=O)n(-c2ccc(F)cc2)c1=O	440	> 1000	5.3	100	> 189	4.4
CN1CCC(CN2CCc3c(ncnc3Oc3ccc(NC(=O)c4cn(CCF)c(=O)n(-c5ccc(F)cc5)c4=O)cc3F)C2)CC1	130	150	8.5	49	18	2.7
CN1CCC(CN2CCc3c(ncnc3Oc3ccc(NC(=O)c4cn(CC5CCC5)c(=O)n(-c5ccc(F)cc5)c4=O)cc3F)C2)CC1	130	88	2.4	16	37	8.1
CC(C)n1cc(C(=O)Nc2ccc(Oc3ncnc4c3CCN(CC(=O)N3CCC3)C4)c(F)c2)c(=O)n(-c2ccc(F)cc2)c1=O	370	200	14	66	14	5.6
CC(C)n1cc(C(=O)Nc2ccc(Oc3ncnc4c3CCN(C(=O)CN3CCOCC3)C4)c(F)c2)c(=O)n(-c2ccc(F)cc2)c1=O	910	170	17	130	10	7
CC(C)Cn1cc(C(=O)Nc2ccc(Oc3ncnc4c3CCN(CC3CCN(C)CC3)C4)c(F)c2)c(=O)n(-c2ccc(F)cc2)c1=O	110	110	5.5	46	20	2.4
CC(C)n1cc(C(=O)Nc2ccc(Oc3ncnc4c3CN(C)C4)c(F)c2)c(=O)n(-c2ccc(F)cc2)c1=O	2600	> 1000	22	220	> 45	
CC(C)n1cc(C(=O)Nc2ccc(Oc3ncnc4c3CN(C(=O)CCN3CCCC3)C4)c(F)c2)c(=O)n(-c2ccc(F)cc2)c1=O	280	160	15	120	11	2.3

More lines, main results first:

IC50 [1] [nM]	IC50 [2] [nM]	IC50 [3] [nM]	IC50 [4] [nM]	Ratio IC50 [6]	Compound	Ratio IC50 [5]
290	240	7.8	74	31	CC(C)n1cc(C(=O)Nc2ccc(Oc3ncnc4c3CCN(C(=O)CCN3CCCC3)C4)c(F)c2)c(=O)n(-c2ccc(F)cc2)c1=O	3.9
150	88	4.3	29	20	CC(C)n1cc(C(=O)Nc2ccc(Oc3ncnc4c3CCN(C(=O)CC3CCN(C)CC3)C4)c(F)c2)c(=O)n(-c2ccc(F)cc2)c1=O	5.2
39	< 4.1	3.4	17	< 1.2	CC(C)n1cc(C(=O)Nc2ccc(Oc3ncnc4c3CN(C(=O)CC3CCN(C)CC3)C4)c(F)c2)c(=O)n(-c2ccc(F)cc2)c1=O	2.3
78	74	3.7	15	20	CC(C)n1cc(C(=O)Nc2ccc(Oc3ncnc4c3CCN(CC3CCN(C)CC3)C4)c(F)c2)c(=O)n(-c2ccc(F)cc2)c1=O	5.2
630	500	12	120	42	CC(C)n1cc(C(=O)Nc2ccc(Oc3ncnc4c3CCN(C(=O)C3CCN(C)CC3)C4)c(F)c2)c(=O)n(-c2ccc(F)cc2)c1=O	5.3
